Experimental data taken from PMC3702004, “Comparison of Intake and Systemic Relative Effect Potencies of Dioxin-like Compounds in Female Mice after a Single Oral Dose” (Environmental Health Perspectives, 2013).

Test: Body and organ weight, hepatic lipid content
Type: in vivo, female C57BL/6 mice
Settings: day 3; for % lipid / g liver: pooled liver samples; for Dose with significant increase in liver weight vs vehicle controls: single oral dose
Experimental: Animals. Eight-week-old female C57BL/6 mice (Harlan laboratories, Venray, the Netherlands) were randomly assigned to treatment groups (six animals per group) and allowed to acclimate for 1.5 weeks. The animals were housed in groups in standard cages and conditions (23 ± 2°C, 50–60% relative humidity, 12-hr dark/light cycle) with free access to food and water. Mice received a single dose of test compound by oral gavage at a dosing volume of 10 mL/kg body weight (BW). Mice treated with corn oil vehicle (10 mL/kg BW) served as controls. For each congener, five different doses were administered, ranging from 0.5–100 μg/kg BW (TCDD) to 5,000–500,000 µg/kg BW (PCB-153). Detailed information on doses is provided in Supplemental Material, Table S1 (http://dx.doi.org/10.1289/ehp.1206336). On day 3 after dosing, animals were euthanized by CO2/O2 asphyxiation, and blood was immediately collected from the abdominal aorta. The liver, thymus, spleen, and adipose tissue were removed, weighed (liver, thymus, and spleen), snap frozen, and stored at –80°C. All animal treatments were performed with permission of the Animal Ethical Committee (DEC Utrecht) and performed according to the [Law on Animal Experiments (1977)]. Animals were treated humanely and with regard for alleviation of suffering.
Compound analysis. Adipose and liver tissues samples were homogenized in Na2SO4, followed by extraction and clean-up in one step, and then eluted with 200 mL 1:1 hexane:dichloromethane on an open column packed with 40% wt/wt H2SO4-impregnated silica and KOH-silica. Blood plasma samples were extracted on an open column using Chem-Elut (Agilent Technologies, Santa Clara, CA, USA) and then NaCl eluted with 75 mL 3:2 hexane:2-propanol. Clean-up was performed using a miniaturized silica column (as described above), and samples were eluted using 30 mL hexane. Because the samples typically contained high levels of the analytes, only a small fraction was evaporated and analyzed. Prior to evaporation, we spiked a fraction of the samples with ^13C-labeled standards. We checked potential loss of analytes during extraction and clean-up by reextracting the samples using the identical protocol used for the samples. […] Tetradecane was added prior to evaporation. Sample analysis followed the U.S. Environmental Protection Agency Method 1613 ([U.S. Environmental Protection Agency 1994]) using single ion monitoring mode on an Agilent 6809N gas chromatograph (Agilent Technologies) coupled with a Micromass Ultima Autospec Ultra high-resolution mass spectrometer (HRMS; Waters Corp., Milford, MA, USA). Compounds were separated on a 60 m × 0.25 mm DB5-MS column ([…]; J&W Scientific, Folsom, CA, USA). The HRMS was operated with electron impact ionization with electron energy of 35 eV and an ion source temperature of 250°C. To reduce the number of analyses, samples were pooled before clean-up. […] This method was used because full congener–specific separation could be achieved on the high-resolution GC–HRMS. For lipid determination, samples were evaporated to dryness after the extraction step, and the amount of lipids was determined gravimetrically. Concentrations were calculated based on lipid weight and wet weight. The analysis of samples for the PCB-118 5,000 μg/kg BW dose failed during the procedure; thus analysis for this group could not be completed.
Statistical analysis. Statistical significant differences of the means and variances were determined using one-way analysis of variance (ANOVA) followed by Tukey-Kramer multiple comparisons. Differences were considered statistically significant at p < 0.05. Statistical calculations were performed using GraphPad 6.01 (GraphPad Software Inc.).

Clc1cc2c(cc1Cl)Oc1c(cc(Cl)c(Cl)c1Cl)O2 [PeCDD, 1,2,3,7,8-pentachlorodibenzodioxin]
Body weight (oral dose 0.5 µg/kg bw): 18.6 ± 1.3 gram
Liver weight (oral dose 0.5 µg/kg bw): 4.56 ± 0.34 % of bw
Spleen weight (oral dose 0.5 µg/kg bw): 0.30 ± 0.02 % of bw
Thymus weight (oral dose 0.5 µg/kg bw): 0.21 ± 0.03 % of bw
% lipid / g liver (oral dose 0.5 µg/kg bw): 4.7%
Body weight (oral dose 2.5 µg/kg bw): 19.4 ± 1.1 gram
Liver weight (oral dose 2.5 µg/kg bw): 5.02 ± 0.26 % of bw
Spleen weight (oral dose 2.5 µg/kg bw): 0.31 ± 0.03 % of bw
Thymus weight (oral dose 2.5 µg/kg bw): 0.29 ± 0.04 % of bw
% lipid / g liver (oral dose 2.5 µg/kg bw): 6.0%
Body weight (oral dose 10 µg/kg bw): 18.9 ± 1.2 gram
Liver weight (oral dose 10 µg/kg bw): 5.32 ± 0.43 % of bw
Spleen weight (oral dose 10 µg/kg bw): 0.32 ± 0.04 % of bw
Thymus weight (oral dose 10 µg/kg bw): 0.23 ± 0.06 % of bw
% lipid / g liver (oral dose 10 µg/kg bw): 6.2%
Body weight (oral dose 25 µg/kg bw): 19.4 ± 1.5 gram
Liver weight (oral dose 25 µg/kg bw): 5.26 ± 0.27 % of bw
Spleen weight (oral dose 25 µg/kg bw): 0.32 ± 0.04 % of bw
Thymus weight (oral dose 25 µg/kg bw): 0.26 ± 0.05 % of bw
Body weight (oral dose 100 µg/kg bw): 18.8 ± 1.1 gram
Liver weight (oral dose 100 µg/kg bw): 5.83 ± 0.50 % of bw
Spleen weight (oral dose 100 µg/kg bw): 0.33 ± 0.04 % of bw
Thymus weight (oral dose 100 µg/kg bw): 0.24 ± 0.05 % of bw
Dose with significant increase in liver weight vs vehicle controls: ≥ 100 µg/kg BW

Clc1ccc(-c2cc(Cl)c(Cl)cc2Cl)cc1Cl [PCB-118, 2,3´,4,4´,5-pentachlorobiphenyl]
Body weight (oral dose 5000 µg/kg bw): 18.3 ± 0.9 gram
Liver weight (oral dose 5000 µg/kg bw): 5.04 ± 0.22 % of bw
Spleen weight (oral dose 5000 µg/kg bw): 0.32 ± 0.03 % of bw
Thymus weight (oral dose 5000 µg/kg bw): 0.27 ± 0.03 % of bw
% lipid / g liver (oral dose 5000 µg/kg bw): 2.7%
Body weight (oral dose 15000 µg/kg bw): 18.3 ± 0.8 gram
Liver weight (oral dose 15000 µg/kg bw): 5.06 ± 0.22 % of bw
Spleen weight (oral dose 15000 µg/kg bw): 0.33 ± 0.05 % of bw
Thymus weight (oral dose 15000 µg/kg bw): 0.23 ± 0.04 % of bw
% lipid / g liver (oral dose 15000 µg/kg bw): 3.3%
Body weight (oral dose 50000 µg/kg bw): 18.0 ± 1.8 gram
Liver weight (oral dose 50000 µg/kg bw): 4.87 ± 0.41 % of bw
Spleen weight (oral dose 50000 µg/kg bw): 0.30 ± 0.03 % of bw
Thymus weight (oral dose 50000 µg/kg bw): 0.20 ± 0.05 % of bw
% lipid / g liver (oral dose 50000 µg/kg bw): 3.5%
Body weight (oral dose 150000 µg/kg bw): 19.2 ± 0.8 gram
Liver weight (oral dose 150000 µg/kg bw): 6.14 ± 0.45 % of bw
Spleen weight (oral dose 150000 µg/kg bw): 0.34 ± 0.04 % of bw
Thymus weight (oral dose 150000 µg/kg bw): 0.21 ± 0.05 % of bw
% lipid / g liver (oral dose 150000 µg/kg bw): 4.6%
Body weight (oral dose 500000 µg/kg bw): 19.1 ± 1.0 gram
Liver weight (oral dose 500000 µg/kg bw): 7.23 ± 0.29 % of bw
Spleen weight (oral dose 500000 µg/kg bw): 0.31 ± 0.03 % of bw
Thymus weight (oral dose 500000 µg/kg bw): 0.23 ± 0.04 % of bw
Dose with significant increase in liver weight vs vehicle controls: ≥ 150,000 µg/kg BW

Clc1ccc(-c2cc(Cl)c(Cl)c(Cl)c2)cc1Cl [PCB-126, 3,3´,4,4´,5-pentachlorobiphenyl]
Body weight (oral dose 5 µg/kg bw): 19.3 ± 0.9 gram
Liver weight (oral dose 5 µg/kg bw): 4.97 ± 0.38 % of bw
Spleen weight (oral dose 5 µg/kg bw): 0.33 ± 0.04 % of bw
Thymus weight (oral dose 5 µg/kg bw): 0.27 ± 0.06 % of bw
% lipid / g liver (oral dose 5 µg/kg bw): 3.4%
Body weight (oral dose 25 µg/kg bw): 18.9 ± 1.4 gram
Liver weight (oral dose 25 µg/kg bw): 4.96 ± 0.35 % of bw
Spleen weight (oral dose 25 µg/kg bw): 0.33 ± 0.06 % of bw
Thymus weight (oral dose 25 µg/kg bw): 0.29 ± 0.05 % of bw
% lipid / g liver (oral dose 25 µg/kg bw): 3.7%
Body weight (oral dose 100 µg/kg bw): 19.5 ± 0.7 gram
Liver weight (oral dose 100 µg/kg bw): 5.07 ± 0.19 % of bw
Spleen weight (oral dose 100 µg/kg bw): 0.31 ± 0.04 % of bw
Thymus weight (oral dose 100 µg/kg bw): 0.25 ± 0.06 % of bw
% lipid / g liver (oral dose 100 µg/kg bw): 4.4%
Body weight (oral dose 250 µg/kg bw): 19.3 ± 1.3 gram
Liver weight (oral dose 250 µg/kg bw): 5.43 ± 0.19 % of bw
Spleen weight (oral dose 250 µg/kg bw): 0.32 ± 0.02 % of bw
Thymus weight (oral dose 250 µg/kg bw): 0.26 ± 0.04 % of bw
Body weight (oral dose 1000 µg/kg bw): 18.8 ± 0.9 gram
Liver weight (oral dose 1000 µg/kg bw): 5.64 ± 0.20 % of bw
Spleen weight (oral dose 1000 µg/kg bw): 0.39 ± 0.16 % of bw
Thymus weight (oral dose 1000 µg/kg bw): 0.27 ± 0.04 % of bw
Dose with significant increase in liver weight vs vehicle controls: ≥ 1,000 µg/kg BW
